Assay results published in US20220031596A1, “ANTI-AGING AGENT AND ANTI-AGING METHOD” (priority 2018, published 2022).

How the values were obtained:
Format in all cases: in vivo, human
[1] = system: estradiol concentration in the plasma; test: Evaluation of estradiol secretion promoting effect (plasma estradiol, 24-week oral ingestion); conditions: for estradiol concentration in the plasma, 0 weeks (before ingestion) / estradiol concentration in the plasma, 24 weeks (after ingestion) / estradiol concentration in the plasma, Change rate (24 weeks - 0 weeks): Low Dose Group (100 mg/daily, oral), mean±SD; for estradiol concentration in the plasma, 0 weeks (before ingestion): baseline
Procedure: In order to confirm a change in the estradiol quantity before and after ingestion of the nicotinamide mononucleotide, a test was conducted on healthy males and females aged 50 to 70 years.
As a sample of Working Example 7, a capsule formulation containing the nicotinamide mononucleotide and starch (100 mg of the nicotinamide mononucleotide in 4 capsules) (manufactured by SHINKOWA PHARMACEUTICAL Co., Ltd.) was used.
[…] In order to conduct appropriate evaluations, those who had been regularly using medical products for chronic diseases, those who had been consuming healthy foods that may affect clinical research, and those who were currently participating in other clinical researches or clinical trials or had participated in other clinical researches or clinical trials within the last three months were excluded from the subject for the evaluation. The capsule formulations were ingested at 10 am (between meals and fasting state) together with water or lukewarm water (oral administration).
Measurement of the estradiol quantity in the plasma was conducted by requesting the measurement to an external public organization according to a usual method. FIGS. 14a to 14c indicate transitions of the estradiol concentration (pg/ml) in the plasma for 24 weeks. FIG. 14a represents the transitions of the whole subjects; FIG. 14b represents the transitions of the male subjects; FIG. 14c represents the transitions of the female subjects. Further, FIGS. 15a to 15c indicate change rates (%) of the blood estradiol concentration up to 24 weeks when the nicotinamide mononucleotide was orally administered to the subjects for 24 weeks. FIG. 15a represents the change rates of the whole subjects; FIG. 15b represents the change rates of the male subjects; FIG. 15c represents the change rates of the female subjects. Further, Table 7 indicates the numerical values of the estradiol concentration (pg/ml) in the plasma before the ingestion of the nicotinamide mononucleotide (0 weeks) and after the ingestion of the nicotinamide mononucleotide (24 weeks). Note that the numerical values represent mean values±standard deviation.

[2] = system: free thyroxine concentration in the plasma; test: Evaluation of free thyroxine (T4) secretion promoting effect (plasma free thyroxine, 24-week oral ingestion); conditions: for free thyroxine concentration in the plasma, 0 weeks (before ingestion) / free thyroxine concentration in the plasma, 24 weeks (after ingestion) / free thyroxine concentration in the plasma, Change rate (24 weeks - 0 weeks): High Dose Group (200 mg/daily, oral), mean±SD; for free thyroxine concentration in the plasma, 0 weeks (before ingestion): baseline
Procedure: In order to confirm a change in the free thyroxine quantity before and after ingestion of the nicotinamide mononucleotide, a test was conducted on healthy males and females aged 50 to 70 years.
As a sample of Working Example 5, a capsule formulation containing the nicotinamide mononucleotide and starch (200 mg of the nicotinamide mononucleotide in 4 capsules) (manufactured by SHINKOWA PHARMACEUTICAL Co., Ltd.) was used.
(§1) Each group consisting of five healthy males and females aged 50 to 70 years in an unbiased age group ingested the above high dose capsule formulation once a day by 4 capsules for 24 weeks (total 10 subjects, 200 mg/daily ingestion). In order to conduct appropriate evaluations, those who had been regularly using medical products for chronic diseases, those who had been consuming healthy foods that may affect clinical research, and those who were currently participating in other clinical researches or clinical trials or had participated in other clinical researches or clinical trials within the last three months were excluded from the subject for the evaluation. The capsule formulations were ingested at 10 am (between meals and fasting state) together with water or lukewarm water (oral administration).
Measurement of the free thyroxine quantity in the plasma was conducted by requesting the measurement to an external public organization according to a usual method. FIGS. 10a to 10c indicate transitions of the free thyroxine concentration (ng/dl) in the plasma for 24 weeks. FIG. 10a represents the transitions of the whole subjects; FIG. 10b represents the transitions of the male subjects; FIG. 10c represents the transitions of the female subjects. Further, FIGS. 11a to 11c indicate change rates (%) of the blood free thyroxine concentration up to 24 weeks when the nicotinamide mononucleotide was orally administered to the subjects for 24 weeks. FIG. 11a represents the change rates of the whole subjects; FIG. 11b represents the change rates of the male subjects; FIG. 11c represents the change rates of the female subjects. Further, Table 5 indicates the numerical values of the free thyroxine concentration (ng/dl) in the plasma before the ingestion of the nicotinamide mononucleotide (0 weeks) and after the ingestion of the nicotinamide mononucleotide (24 weeks). Note that the numerical values represent mean values±standard deviation.

[3] = system: calcitonin concentration in the plasma; test: Evaluation of calcitonin secretion promoting effect (plasma calcitonin, 24-week oral ingestion); conditions: for calcitonin concentration in the plasma, 0 weeks (before ingestion) / calcitonin concentration in the plasma, 24 weeks (after ingestion) / calcitonin concentration in the plasma, Change rate (24 weeks - 0 weeks): High Dose Group (200 mg/daily, oral), mean±SD; for calcitonin concentration in the plasma, 0 weeks (before ingestion): baseline
Procedure: In order to confirm a change in the calcitonin quantity before and after ingestion of the nicotinamide mononucleotide, a test was conducted on healthy males and females aged 50 to 70 years.
As a sample of Working Example 12, a capsule formulation containing the nicotinamide mononucleotide and starch (200 mg of the nicotinamide mononucleotide in 4 capsules) (manufactured by SHINKOWA PHARMACEUTICAL Co., Ltd.) was used.
as §1
Measurement of the calcitonin quantity in the plasma was conducted by requesting the measurement to an external public organization according to a usual method. FIGS. 24a to 24c indicate transitions of the calcitonin concentration (pg/ml) in the plasma for 24 weeks. FIG. 24a represents the transitions of the whole subjects; FIG. 24b represents the transitions of the male subjects; FIG. 24c represents the transitions of the female subjects. Further, FIGS. 25a to 25c indicate change rates (%) of the blood calcitonin concentration up to 24 weeks when the nicotinamide mononucleotide was orally administered to the subjects for 24 weeks. FIG. 25a represents the change rates of the whole subjects; FIG. 25b represents the change rates of the male subjects; FIG. 25c represents the change rates of the female subjects. Further, Table 11 indicates the numerical values of the calcitonin concentration (pg/ml) in the plasma before the ingestion of the nicotinamide mononucleotide (0 weeks) and after the ingestion of the nicotinamide mononucleotide (24 weeks). Note that the numerical values represent mean values±standard deviation.

NC(=O)c1ccc[n+]([C@@H]2O[C@H](COP(=O)([O-])O)[C@@H](O)[C@H]2O)c1 [nicotinamide mononucleotide]
estradiol concentration in the plasma, 0 weeks (before ingestion) ([1]; Female): 10.0 ± 0.0 pg/mL
estradiol concentration in the plasma, 24 weeks (after ingestion) ([1]; Female): 40.8 ± 70.6 pg/mL
estradiol concentration in the plasma, Change rate (24 weeks - 0 weeks) ([1]; Female): 30.8 ± 70.6 pg/mL
estradiol concentration in the plasma, 0 weeks (before ingestion) ([1]; Male): 24.0 ± 9.4 pg/mL
estradiol concentration in the plasma, 24 weeks (after ingestion) ([1]; Male): 24.9 ± 7.7 pg/mL
estradiol concentration in the plasma, Change rate (24 weeks - 0 weeks) ([1]; Male): 0.9 ± 5.6 pg/mL
estradiol concentration in the plasma, 0 weeks (before ingestion) ([1]; Whole Subjects): 17.0 ± 9.7 pg/mL
estradiol concentration in the plasma, 24 weeks (after ingestion) ([1]; Whole Subjects): 32.9 ± 48.1 pg/mL
estradiol concentration in the plasma, Change rate (24 weeks - 0 weeks) ([1]; Whole Subjects): 15.9 ± 49.8 pg/mL
estradiol concentrations in the plasma, effect of ingestion (in words) ([1]; oral, 100 mg/daily, 24 weeks, FIGS. 14a-14c, 15a-15c): increased
free thyroxine concentration in the plasma, 0 weeks (before ingestion) ([2]; Female): 1.10 ± 0.19 ng/dL
free thyroxine concentration in the plasma, 24 weeks (after ingestion) ([2]; Female): 1.13 ± 0.09 ng/dL
free thyroxine concentration in the plasma, Change rate (24 weeks - 0 weeks) ([2]; Female): 0.03 ± 012 ng/dL
free thyroxine concentration in the plasma, 0 weeks (before ingestion) ([2]; Male): 1.15 ± 0.19 ng/dL
free thyroxine concentration in the plasma, 24 weeks (after ingestion) ([2]; Male): 1.22 ± 0.17 ng/dL
free thyroxine concentration in the plasma, Change rate (24 weeks - 0 weeks) ([2]; Male): 0.07 ± 0.15 ng/dL
free thyroxine concentration in the plasma, 0 weeks (before ingestion) ([2]; Whole Subjects): 1.13 ± 0.18 ng/dL
free thyroxine concentration in the plasma, 24 weeks (after ingestion) ([2]; Whole Subjects): 1.18 ± 0.14 ng/dL
free thyroxine concentration in the plasma, Change rate (24 weeks - 0 weeks) ([2]; Whole Subjects): 0.05 ± 0.13 ng/dL
free thyroxine concentrations in the plasma, effect of ingestion (in words) ([2]; oral, 200 mg/daily, 24 weeks, FIGS. 10a-10c, 11a-11c): increased
calcitonin concentration in the plasma, 0 weeks (before ingestion) ([3]; Female): 0.60 ± 0.10 pg/mL
calcitonin concentration in the plasma, 24 weeks (after ingestion) ([3]; Female): 0.71 ± 0.20 pg/mL
calcitonin concentration in the plasma, Change rate (24 weeks - 0 weeks) ([3]; Female): 0.11 ± 0.10 pg/mL
calcitonin concentration in the plasma, 0 weeks (before ingestion) ([3]; Male): 2.35 ± 1.97 pg/mL
calcitonin concentration in the plasma, 24 weeks (after ingestion) ([3]; Male): 2.44 ± 2.21 pg/mL
calcitonin concentration in the plasma, Change rate (24 weeks - 0 weeks) ([3]; Male): 0.09 ± 0.37 pg/mL
calcitonin concentration in the plasma, 0 weeks (before ingestion) ([3]; Whole Subjects): 1.48 ± 1.61 pg/mL
calcitonin concentration in the plasma, 24 weeks (after ingestion) ([3]; Whole Subjects): 1.58 ± 1.74 pg/mL
calcitonin concentration in the plasma, Change rate (24 weeks - 0 weeks) ([3]; Whole Subjects): 0.10 ± 0.25 pg/mL
calcitonin concentrations in the plasma, effect of ingestion (in words) ([3]; oral, 200 mg/daily, 24 weeks, FIGS. 24a-24c, 25a-25c): increased
